Data taken from patent EP4603105A1, “PHARMACEUTICAL COMPOSITION CONTAINING CYCLIC COMPOUND HAVING SELECTIVE KRAS INHIBITORY EFFECT AGAINST HRAS AND NRAS” (CHUGAI SEIYAKU KABUSHIKI KAISHA, priority 2022, dated 2024).
*1 amine or outer side, *2 acyl side, *3 side chain or, on linkers, in order; H or OH if unused. Where a SMILES comes first, the peptide text is derived from it. Bridges are numbered along the chain shown (N, C = ends). [ ]: non-standard residue; d: D form. The star is where a group is joined. hPhe(3,5-F2-4-CF3) = N[C@@H](CCc1cc(F)c(C(F)(F)F)c(F)c1)C(=O)O; hPhe(3-Cl-4-CF3) = N[C@@H](CCc1ccc(C(F)(F)F)c(Cl)c1)C(=O)O; X29 = C#CCN([C@@H](Cc1ccc(C(F)(F)F)cc1)C(=O)[*:2])[*:1]; NPrPhe(4-CF3) = CCCN[C@@H](Cc1ccc(C(F)(F)F)cc1)C(=O)O; X45 = CCCN([C@@H](CC1CCC(F)(F)CC1)C(=O)[*:2])[*:1]; NMeAbu(4,4,4-F3) = CN[C@@H](CC(F)(F)F)C(=O)O; NMeGly(cPent) = CN[C@H](C(=O)O)C1CCCC1; Pro(4,4-F2) = O=C(O)[C@@H]1CC(F)(F)CN1; Ac4c(3,3-F2) = NC1(C(=O)O)CC(F)(F)C1; NMeD = CN[C@@H](CC(=O)O)C(=O)O; NMeL = CN[C@@H](CC(C)C)C(=O)O; Morpholide = C1CN(*)CCO1; Ac5c = NC1(C(=O)O)CCCC1; Aze = O=C(O)[C@@H]1CCN1; Sar = CNCC(=O)O

Assays:
[1] = target: GDP-bound NRAS wild-type protein (Homo sapiens, UniProt P01111); assay: Binding to NRAS by surface plasmon resonance (SPR), KD and KD ratio to KRAS
Outline: (§1)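 Compound binding is evaluated by SPR single-cycle kinetics, with concentrations added intermittently from low to high for 75 s each. Target surfaces carry GDP-loaded biotinylated Avi-RAS at about 100–300 RU, regenerated after each cycle; temperature 30°C. A 1:1 binding model gives KD.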

HRAS wild-type protein = HRAS wild-type protein (Homo sapiens, UniProt P01112); assay: Binding to HRAS by surface plasmon resonance (SPR), KD and KD ratio to KRAS
Outline: as §1

[2] = test system: human lung cancer strain NCI-H441; type: cell-based
Outline: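 Proliferation was scored by […] measured after the reagent was added to cultures kept at 37°C in 5% carbon dioxide.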

[3] = ratio of KD for GDP-bound NRAS wild-type protein to KD for KRAS
[4] = ratio of KD for HRAS wild-type protein to KD for KRAS
[5] = ratio of KD value for GDP-bound NRAS wild-type protein to KD value for KRAS (SPR)
[6] = ratio of KD value for HRAS wild-type protein to KD value for KRAS (SPR)
[7] = ratio of the KD value with respect to GDP-bound NRAS wild-type protein to the KD value with respect to KRAS
[8] = ratio of the KD value with respect to HRAS wild-type protein to the KD value with respect to KRAS

Chain of HRAS wild-type protein (P01112 whole entry): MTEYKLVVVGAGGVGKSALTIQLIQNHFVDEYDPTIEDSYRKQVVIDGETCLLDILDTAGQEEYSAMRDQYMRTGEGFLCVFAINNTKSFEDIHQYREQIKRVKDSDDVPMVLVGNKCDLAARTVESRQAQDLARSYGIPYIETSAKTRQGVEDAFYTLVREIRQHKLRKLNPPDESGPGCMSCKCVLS
Chain of GDP-bound NRAS wild-type protein (P01111 whole entry): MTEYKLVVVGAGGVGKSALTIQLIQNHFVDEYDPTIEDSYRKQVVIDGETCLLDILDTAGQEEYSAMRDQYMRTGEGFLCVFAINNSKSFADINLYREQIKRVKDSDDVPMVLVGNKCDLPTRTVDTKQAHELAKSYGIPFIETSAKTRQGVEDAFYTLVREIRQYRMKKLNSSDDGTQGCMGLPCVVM

Row | IC50 [2] [nM] | Compound | NRAS /KRAS [1, 3] | HRAS /KRAS (HRAS wild-type protein; [4]) | NRAS /KRAS [1, 7] | HRAS /KRAS (HRAS wild-type protein; [8]) | also measured
1 | 4.2 | CCO[C@@H]1C[C@H]2C(=O)NC3(CC(C)(C)C3)C(=O)N(C)[C@@H](C3CCCC3)C(=O)N(C)[C@H](C(=O)N3CCCC3)CC(=O)N(C)[C@H]3CCC/C=C/c4ccc(cc4)C[C@@H](C(=O)N(C)CC(=O)N[C@@H](CCc4cc(F)c(C(F)(F)F)c(F)c4)C(=O)N2C1)N1CC/C=C\C[C@@H](C1=O)N(C)C(=O)CN(C)C(=O)[C@H]([C@@H](C)CC)NC3=O [PP2574] | A (a compound having 10 or more and less than 20 is denoted as A) | A (a compound having 10 or more and less than 20 is denoted as A) |  |  | 
2 | 44.8 | CCO[C@@H]1C[C@H]2C(=O)NC3(CC(F)(F)C3)C(=O)N(C)[C@@H](C3CCCC3)C(=O)N(C)[C@H](C3CCC3)CC(=O)N(C)[C@@H](CC3CC3)C(=O)N[C@@H]([C@@H](C)CC)C(=O)N(C)CC(=O)N(C)[C@H]3C/C=C\CCN(C3=O)[C@@H](Cc3ccc(C(F)(F)F)cc3)C(=O)N(C)CC(=O)N[C@@H](CCc3cc(F)c(C(F)(F)F)c(F)c3)C(=O)N2C1 [PP1639] |  |  |  |  | NRAS /KRAS [1, 5]: A (a compound having 10 or more and less than 20 is denoted as A); HRAS /KRAS (HRAS wild-type protein; [6]): A (a compound having 10 or more and less than 20 is denoted as A)
3 | 15.1 | CCCO[C@@H]1C[C@H]2C(=O)NC3(CC(C)(C)C3)C(=O)N(C)[C@@H](C3CCCC3)C(=O)N(C)[C@H](C(=O)N(C)CC)CC(=O)N(C)[C@H]3CCCc4ccc(cc4)C[C@@H](C(=O)N(C)CC(=O)N[C@@H](CCc4ccc(C(F)(F)F)c(OC)c4)C(=O)N2C1)N1CC/C=C\C[C@@H](C1=O)N(C)C(=O)CN(C1CC1)C(=O)[C@H]([C@@H](C)CC)NC3=O [PP3088] | B (a compound having 3 or more and less than 10 is denoted as B) | B (a compound having 3 or more and less than 10 is denoted as B) |  |  | 
4 | 22.5 | CCCN(C)C(=O)[C@@H]1CC(=O)N(C)[C@@H](CC(C)C)C(=O)N[C@@H]([C@@H](C)OC)C(=O)N(C)CC(=O)N(C)[C@H]2C/C=C\CCN(C2=O)[C@@H](Cc2ccc(C(F)(F)F)cc2)C(=O)N(C)CC(=O)N[C@@H](CCc2cc(F)c(C(F)(F)F)c(F)c2)C(=O)N2C[C@H](OCC)C[C@H]2C(=O)NC2(CC(C)(C)C2)C(=O)N(C)[C@@H](C2CCCC2)C(=O)N1C [PP1917] |  |  | A (a compound having 10 or more and less than 20 is denoted as A) | A (a compound having 10 or more and less than 20 is denoted as A) | 
5 | 8.8 | CCO[C@@H]1C[C@H]2C(=O)NC3(CC(C)(C)C3)C(=O)N(C)[C@@H](C3CCCC3)C(=O)N(C)[C@H](C(=O)N(C)CC)CC(=O)N(C)[C@@H](C(C)C)C(=O)N[C@@H]([C@@H](C)CC)C(=O)N(C)CC(=O)N(C)[C@H]3C/C=C\CCN(C3=O)[C@@H](Cc3ccc(C(F)(F)F)cc3)C(=O)N(C)CC(=O)N[C@@H](CCc3cc(F)c(C(F)(F)F)c(F)c3)C(=O)N2C1 [PP2034] |  |  | A (a compound having 10 or more and less than 20 is denoted as A) | A (a compound having 10 or more and less than 20 is denoted as A) | 
6 | 3.8 | CC[C@H](C)[C@@H]1NC(=O)[C@H](CC2CCC2)N(C)C(=O)C[C@@H](C(=O)N(C)C)N(C)C(=O)[C@H](C2CCCC2)N(C)C(=O)C2(CC(C)(C)C2)NC(=O)[C@@H]2CC(F)(F)CN2C(=O)[C@H](CCc2cc(F)c(C(F)(F)F)c(F)c2)NC(=O)CN(C)C(=O)[C@H](Cc2ccc(C(F)(F)F)cc2)N2CC/C=C\C[C@@H](C2=O)N(C)C(=O)CN(C)C1=O [PP1716] |  |  |  |  | NRAS /KRAS [1, 5]: AA (a compound having 20 or more is denoted as AA); HRAS /KRAS (HRAS wild-type protein; [6]): A (a compound having 10 or more and less than 20 is denoted as A)
7 | 17.9 | CCC[C@H]1C(=O)N[C@@H]([C@@H](C)CC)C(=O)N(CCC)CC(=O)N(C)[C@H]2C/C=C\CCN(C2=O)[C@@H](Cc2ccc(C(F)(F)F)cc2)C(=O)N(C)CC(=O)N[C@@H](CCc2cc(F)c(C(F)(F)F)c(F)c2)C(=O)N2C[C@H](OCC)C[C@H]2C(=O)NC2(CCC2)C(=O)N(C)[C@@H](C2CCCC2)C(=O)N(C)[C@H](C(=O)N(C)C)CC(=O)N1C [PP1767] |  |  |  |  | NRAS /KRAS [1, 5]: A (a compound having 10 or more and less than 20 is denoted as A); HRAS /KRAS (HRAS wild-type protein; [6]): B (a compound having 3 or more and less than 10 is denoted as B)

Continued, molecule first:

Row | Compound | IC50 [2] [nM] | NRAS /KRAS [1, 3] | HRAS /KRAS (HRAS wild-type protein; [4]) | NRAS /KRAS [1, 7] | HRAS /KRAS (HRAS wild-type protein; [8]) | also measured
8 | CC[C@H](C)[C@@H]1NC(=O)[C@H](C)N(C)C(=O)C[C@@H](C(=O)N2CCOCC2)N(C)C(=O)[C@H](C2CCCC2)N(C)C(=O)C2(CCC2)NC(=O)[C@@H]2CC(F)(F)CN2C(=O)[C@H](CCc2cc(F)c(C(F)(F)F)c(F)c2)NC(=O)CN(C)C(=O)[C@H](Cc2ccc(C(F)(F)F)cc2)N2CCCCC[C@@H](C2=O)N(C)C(=O)CN(C)C1=O [PP0471] | 37.7 |  |  | B (a compound having 3 or more and less than 10 is denoted as B) | B (a compound having 3 or more and less than 10 is denoted as B) | 
9 | CCO[C@@H]1C[C@H]2C(=O)NC3(CCC3)C(=O)N(C)[C@@H](C3CCCC3)C(=O)N(C)[C@H](C(=O)N3CCOCC3)CC(=O)N(C)[C@@H](CC(C)C)C(=O)N[C@@H]([C@@H](C)CC)C(=O)N(C)CC(=O)N(C)[C@H]3CC/C=C(/C)CN(C3=O)[C@@H](Cc3ccc(C(F)(F)F)cc3)C(=O)N(C)CC(=O)N[C@@H](CCc3cc(F)c(C(F)(F)F)c(F)c3)C(=O)N2C1 [PP1333] | 980 |  |  |  |  | NRAS /KRAS ([1]; ratio of KD with respect to GDP-bound NRAS wild-type protein to KD with respect to KRAS): C (A compound having a KD ratio of 0.1 or more and less than 3 is denoted as C); HRAS /KRAS (HRAS wild-type protein; ratio of KD with respect to HRAS wild-type protein to KD with respect to KRAS): B (a compound having 3 or more and less than 10 is denoted as B)
10 | CCCN1C(=O)[C@@H]2CCN2C(=O)CN(C)C(=O)[C@H]([C@@H](C)CC)NC(=O)[C@H](CC(C)C)N(C)C(=O)C[C@@H](C(=O)N2CCOCC2)N(C)C(=O)[C@H](C2CCCC2)N(C)C(=O)C2(CC(F)(F)C2)NC(=O)[C@@H]2CCCN2C(=O)[C@H](CCc2cc(F)c(C(F)(F)F)c(F)c2)NC(=O)CN(C)C(=O)[C@@H]1Cc1ccc(C(F)(F)F)cc1 [PP0802] ([NMeL]I[Sar][Aze][NPrPhe(4-CF3)][Sar][hPhe(3,5-F2-4-CF3)]P[Ac4c(3,3-F2)][NMeGly(cPent)][NMeD]-Morpholide; lactam N-11) | 6.5 | C (A compound having a KD ratio of 0.1 or more and less than 3 is denoted as C) | B (a compound having 3 or more and less than 10 is denoted as B) |  |  | 
11 | CCCN1C(=O)CN(C)C(=O)CN(C)C(=O)[C@H]([C@@H](C)CC)NC(=O)[C@H](CC(C)C)N(C)C(=O)C[C@@H](C(=O)N2CCOCC2)N(C)C(=O)[C@H](C2CCCC2)N(C)C(=O)C2(CCCC2)NC(=O)[C@@H]2CCCN2C(=O)[C@H](CCc2ccc(C(F)(F)F)c(Cl)c2)NC(=O)CN(C)C(=O)[C@@H]1CC1CCC(F)(F)CC1 [PP0526] ([NMeL]I[Sar][Sar][X45][Sar][hPhe(3-Cl-4-CF3)]P[Ac5c][NMeGly(cPent)][NMeD]-Morpholide; lactam N-11) | 6.6 |  |  | B (a compound having 3 or more and less than 10 is denoted as B) | C (A compound having a KD ratio of 0.1 or more and less than 3 is denoted as C) | 
12 | CCCN1C(=O)CN(C)C(=O)CN(C)C(=O)[C@H]([C@@H](C)CC)NC(=O)[C@H](CC(F)(F)F)N(C)C(=O)C[C@@H](C(=O)N2CCOCC2)N(C)C(=O)[C@H](C2CCCC2)N(C)C(=O)C2(CCCC2)NC(=O)[C@@H]2CC(F)(F)CN2C(=O)[C@H](CCc2ccc(C(F)(F)F)c(Cl)c2)NC(=O)CN(C)C(=O)[C@@H]1Cc1ccc(C(F)(F)F)cc1 [PP0199] ([NMeAbu(4,4,4-F3)]I[Sar][Sar][NPrPhe(4-CF3)][Sar][hPhe(3-Cl-4-CF3)][Pro(4,4-F2)][Ac5c][NMeGly(cPent)][NMeD]-Morpholide; lactam N-11) | 3.5 | B (a compound having 3 or more and less than 10 is denoted as B) | C (A compound having a KD ratio of 0.1 or more and less than 3 is denoted as C) |  |  | 
13 | C#CCN1C(=O)CN(C)C(=O)CN(C)C(=O)[C@H]([C@@H](C)CC)NC(=O)[C@H](CC(C)C)N(C)C(=O)C[C@@H](C(=O)N2CCOCC2)N(C)C(=O)[C@H](C2CCCC2)N(C)C(=O)C2(CCCC2)NC(=O)[C@@H]2CCCN2C(=O)[C@H](CCc2ccc(C(F)(F)F)c(Cl)c2)NC(=O)CN(C)C(=O)[C@@H]1Cc1ccc(C(F)(F)F)cc1 [PP0130] ([NMeL]I[Sar][Sar][X29][Sar][hPhe(3-Cl-4-CF3)]P[Ac5c][NMeGly(cPent)][NMeD]-Morpholide; lactam N-11) | 8.8 | C (A compound having a KD ratio of 0.1 or more and less than 3 is denoted as C) | C (A compound having a KD ratio of 0.1 or more and less than 3 is denoted as C) |  |  | 
14 | C=CC[C@H]1C(=O)N[C@@H]([C@@H](C)CC)C(=O)N(C)CC(=O)N(C)[C@H]2CCCCN(C2=O)[C@@H](Cc2ccc(C(F)(F)F)cc2)C(=O)N(C)CC(=O)N[C@@H](CCc2cc(F)c(C(F)(F)F)c(F)c2)C(=O)N2C[C@H](OCC)C[C@H]2C(=O)NC2(CCC2)C(=O)N(C)[C@@H](C2CCCC2)C(=O)N(C)[C@H](C(=O)N2CCOCC2)CC(=O)N1C [PP0710] | 4.9 |  |  | C (A compound having a KD ratio of 0.1 or more and less than 3 is denoted as C) | B (a compound having 3 or more and less than 10 is denoted as B) | 
